# Laboratory results reported in patent US20250144067A1, “PERSONALIZED STARVATION THERAPY FOR CANCER” (Faeth Therapeutics, Inc., priority 2021, published 2025).
# Structures can show the parent of a compound that is named as a salt.
# Columns and labels:
# [1] = system: NCI-H292 lung cancer cells; experiment: FDA drug screening, complete media vs cholesterol-free media without statin (TABLE 1); type: cell-based, human; conditions: for Difference: about 0 neutral
# [2] = system: NCI-H292 lung cancer cells; experiment: FDA drug screening, complete media vs cholesterol-free media with simvastatin (TABLE 2); type: cell-based, human; conditions: for Cholesterol-free media + simvastatin (0.04 μM) / Complete Media: NCI-H292 cells; for Difference: >0 enhanced anti-cancer activity, about 0 neutral, <0 antagonist
# [3] = NCI-H292 cells, cholesterol-free media without statin
# [4] = complete vs cholesterol-free media, greater than 0 enhanced anti-cancer activity, below 0 antagonists
# [5] = FDA library drug in cholesterol-free media with simvastatin 0.04 μM
# [6] = FDA library drug in complete media
# [7] = complete media vs cholesterol-free media + simvastatin (0.04 μM)
# [8] = drug in cholesterol-free media with simvastatin 0.04 μM
# [9] = cholesterol-free media with simvastatin 0.04 μM, FDA drug library screen (TABLE 2)
# [10] = complete media, FDA drug library screen (TABLE 2)
# [11] = complete media minus cholesterol-free media + simvastatin (0.04 μM)
# [12] = Complete minus Cholesterol-free, greater than 0 enhanced anti-cancer activity, below 0 antagonist
# [13] = NCI-H292 cells, FDA drug library screen, cholesterol-free media without statin
# [14] = NCI-H292 cells, FDA drug library screen, complete media
# [15] = Complete minus Cholesterol-free, greater than 0 enhanced anti-cancer activity, below 0 antagonists
# [16] = NCI-H292 cells in cholesterol-free media without statin
# [17] = NCI-H292 cells in complete media
# [18] = Complete minus Cholesterol-free, >0 enhanced anti-cancer activity, <0 antagonist
# [19] = cholesterol-free media with simvastatin 0.04 μM, cell growth value in FDA drug screen
# [20] = complete media, cell growth value in FDA drug screen
# [21] = complete media minus cholesterol-free media + simvastatin
# [22] = NCI-H292 cells, cholesterol-free media without statin, FDA drug library screen
# [23] = NCI-H292 cells, complete media, FDA drug library screen
# [24] = FDA drug library screen, cholesterol-free media with simvastatin 0.04 μM
# [25] = FDA drug library screen, complete media
# [26] = complete vs cholesterol-free media, >0 enhanced anti-cancer activity, <0 antagonist
smiles,measurement,setting,value
CC(C)C[C@H](NC(=O)[C@@H](O)[C@H](N)Cc1ccccc1)C(=O)O [Bestatin],Cholesterol-free,[1]; [3],1.255
same,Complete,"[1]; NCI-H292 cells, complete media",0.8191
same,Difference,[1]; [4],−0.44
same,Cholesterol-free media + simvastatin (0.04 μM),[2]; [5],1.263
same,Complete Media,[2]; [6],0.9917
same,Difference,[2]; [7],−0.27
CNCCc1ccccn1 [Betahistine (dihydrochloride)],Cholesterol-free,[1]; [3],1.528
same,Complete,"[1]; NCI-H292 cells, complete media",1.139
same,Difference,[1]; [4],−0.39
same,Cholesterol-free media + simvastatin (0.04 μM),[2]; [8],1.02
same,Complete Media,[2]; drug in complete media,0.8007
same,Difference,[2]; [7],−0.22
CNCCc1ccccn1.CS(=O)(=O)O.CS(=O)(=O)O [Betahistine (mesylate)],Cholesterol-free,[1]; [3],1.235
same,Complete,"[1]; NCI-H292 cells, complete media",0.8713
same,Difference,[1]; [4],−0.36
same,Cholesterol-free media + simvastatin (0.04 μM),[2]; [9],1.015
same,Complete Media,[2]; [10],1.025
same,Difference,[2]; [11],0.01
CNCCc1ccccn1 [Betahistine],Difference,[1]; [12],−0.10
same,Cholesterol-free,[1]; [13],1.192
same,Complete,[1]; [14],1.087
same,Cholesterol-free media + simvastatin (0.04 μM),[2]; [8],1.266
same,Complete Media,[2]; drug in complete media,1.062
same,Difference,[2]; [7],−0.20
C[N+](C)(C)CC(=O)O [Betaine (hydrochloride)],Difference,[1]; [15],−0.76
same,Cholesterol-free,[1]; [16],1.594
same,Complete,[1]; [17],0.8295
same,Cholesterol-free media + simvastatin (0.04 μM),[2]; [8],1.292
same,Complete Media,[2]; drug in complete media,1.099
same,Difference,[2]; [7],−0.19
CCC(=O)OCC(=O)[C@@]1(OC(=O)CC)[C@@H](C)C[C@H]2[C@@H]3CCC4=CC(=O)C=C[C@]4(C)[C@@]3(F)[C@@H](O)C[C@@]21C [Betamethasone dipropionate],Difference,[1]; [18],−0.28
same,Cholesterol-free,[1]; [3],0.9149
same,Complete,"[1]; NCI-H292 cells, complete media",0.6317
same,Cholesterol-free media + simvastatin (0.04 μM),[2]; [19],0.5238
same,Complete Media,[2]; [20],0.6181
same,Difference,[2]; [21],0.09
C[C@H]1C[C@H]2[C@@H]3CCC4=CC(=O)C=C[C@]4(C)[C@@]3(F)[C@@H](O)C[C@]2(C)[C@@]1(O)C(=O)CO [Betamethasone],Difference,[1]; [18],−0.03
same,Cholesterol-free,[1]; [22],0.6463
same,Complete,[1]; [23],0.6113
same,Cholesterol-free media + simvastatin (0.04 μM),[2]; [24],1.093
same,Complete Media,[2]; [25],0.9456
same,Difference,[2]; [7],−0.15
O=C(O)CCNC(=O)c1ccccc1 [Betamipron],Difference,[1]; [15],−1.00
same,Cholesterol-free,[1]; [16],1.952
same,Complete,[1]; [17],0.9561
same,Cholesterol-free media + simvastatin (0.04 μM),[2]; [19],0.7936
same,Complete Media,[2]; [20],0.9075
same,Difference,[2]; [21],0.11
CC(C)NCC(O)COc1ccc(CCOCC2CC2)cc1 (stereo not drawn) [Betaxolol (hydrochloride)],Difference,[1]; [18],−0.02
same,Cholesterol-free,[1]; [22],0.8929
same,Complete,[1]; [23],0.8739
same,Cholesterol-free media + simvastatin (0.04 μM),[2]; [19],1.08
same,Complete Media,[2]; [20],1.11
same,Difference,[2]; [21],0.03
CC(C)NCC(O)COc1ccc(CCOCC2CC2)cc1 (stereo not drawn) [Betaxolol],Difference,[1]; [12],−0.10
same,Cholesterol-free,[1]; [13],1.183
same,Complete,[1]; [14],1.079
same,Cholesterol-free media + simvastatin (0.04 μM),[2]; [9],0.941
same,Complete Media,[2]; [10],0.9172
same,Difference,[2]; [11],−0.02
CC(C[N+](C)(C)C)OC(N)=O.[Cl-] (stereo not drawn) [Bethanechol (chloride)],Cholesterol-free,[1]; [22],1.24
same,Complete,[1]; [23],1.407
same,Difference,[1]; [26],0.17
same,Cholesterol-free media + simvastatin (0.04 μM),[2]; [5],1.34
same,Complete Media,[2]; [6],0.9882
same,Difference,[2]; [7],−0.35
COc1ccc(NC(=O)c2ccc(C(=N)N(C)C)cc2)c(C(=O)Nc2ccc(Cl)cn2)c1 [Betrixaban],Cholesterol-free,[1]; [22],0.6104
same,Complete,[1]; [23],1.062
same,Difference,[1]; [26],0.45
same,Cholesterol-free media + simvastatin (0.04 μM),[2]; [5],1.424
same,Complete Media,[2]; [6],0.7486
same,Difference,[2]; [7],−0.68
COc1ccc(CCNCC(O)COc2cccc(C)c2)cc1OC (stereo not drawn) [Bevantolol (hydrochloride)],Difference,[1]; [15],−0.52
same,Cholesterol-free,[1]; [16],1.227
same,Complete,[1]; [17],0.7079
same,Cholesterol-free media + simvastatin (0.04 μM),[2]; [5],1.404
same,Complete Media,[2]; [6],0.952
same,Difference,[2]; [7],−0.45
C=C(c1ccc(C(=O)O)cc1)c1cc2c(cc1C)C(C)(C)CCC2(C)C [Bexarotene],Difference,[1]; [18],−0.22
same,Cholesterol-free,[1]; [3],1.341
same,Complete,"[1]; NCI-H292 cells, complete media",1.124
same,Cholesterol-free media + simvastatin (0.04 μM),[2]; [24],1.087
same,Complete Media,[2]; [25],0.9865
same,Difference,[2]; [7],−0.10
